Here are results for eight compounds from patent publication US7750155B2, “Pyrazinyl hydroxyacrylamide compounds having an inhibitory effect on the activity of histone deacetylase” (Astellas Pharma Inc., priority 2006, dated 2010).

The test system of series [1] is blood corpuscles (platelet, white blood corpuscle). Kind of series: Test 4: Measurement of change rate of blood corpuscles. Particulars: 4 mg/kg oral once a day for 14 days, male LEW rats, blood 24 hr after last administration. Type of series: in vivo. As to the method:
Test 4: Measurement of Change Rate of Blood Corpuscles Experimental drugs were oral administered to rats (male LEW) once a day for continuous 14 days. The blood sample contained heparin and EDTA were collected at 24 hr after last administration, and the number of differential blood corpuscles were measured by auto-hemocytometer (Sysmex).

Series [2] deals with T1, human histone deacetylase partially purified from human T cell leukemia Jurkat cells.
T1 construct: The human histone deacetylase was partially purified from human T cell leukemia Jurkat cells
Kind of series: Test 1: Determination of histone deacetylase inhibitor activity ([3H]acetyl histone deacetylation). Type of series: biochemical. Particulars: partially purified human HDAC from Jurkat cells, [3H]acetyl histone substrate, 25° C., 30 minutes; read-out: Test 1: HDAC inhibitory activity IC50. As to the method: Test 1: Determination of Histone Deacetylase Inhibitor Activity
The partial purification of human histone deacetylase, the preparation of [^3H] acetyl histones, and the assay for histone deacetylase activity were performed basically according to the method as proposed by Yoshida et al. as follows.
Partial Purification of Human Histone Deacetylase
The human histone deacetylase was partially purified from human T cell leukemia Jurkat cells. Jurkat cells (5×10^8 cells) were suspended in 40 mL of the HDA buffer consisting of 15 mM potassium phosphate, pH 7.5, 5% glycerol and 0.2 mM EDTA. After homogenization, nuclei were collected by centrifugation (35,000×g, 10 min) and homogenized in 20 mL of the same buffer supplemented with 1 M (NH4)2SO4. The viscous homogenate was sonicated and clarified by centrifugation (35,000×g, 10 min), and the deacetylase was precipitated by raising the concentration of (NH4)2SO4 to 3.5 M. The precipitated protein was dissolved in 10 mL of the HDA buffer and dialyzed against 4 liters of the same buffer. The dialyzate was then loaded onto a DEAE-cellulose (Whatman DE52) column (25×85 mm) equilibrated with the same buffer and eluted with 300 mL of a linear gradient (0-0.6 M) of NaCl. A single peak of histone deacetylase activity appeared between 0.3 and 0.4 M NaCl.
Preparation of [^3H] Acetyl Histone
To obtain [^3H] acetyl-labeled histone as the substrate for the histone deacetylase assay, 1×10^8 cells of Jurkat in 20 mL of RPMI-1640 medium (supplemented with 10% FBS, penicillin (50 units/mL) and streptomycin (50 μg/mL)) were incubated with 300 MBq [^3H] sodium acetate in the presence of 5 mM sodium butyrate for 30 minutes in 5% CO2-95% air atmosphere at 37° C. in a […] flask, harvested into a centrifuge tube (50 mL), collected by centrifugation at 1000 rpm for 10 minutes, and washed once with phosphate-buffered saline. The washed cells were suspended in 15 mL of ice-cold lysis buffer (10 mM Tris-HCl, 50 mM sodium bisulfite, 1% Triton X-100, 10 mM MgCl2, 8.6% sucrose, pH 6.5). After Dounce homogenization (30 stroke), the nuclei were collected by centrifugation at 1000 rpm for 10 minutes, washed 3 times with 15 mL of the lysis buffer, and once with 15 mL of ice-cooled washing buffer (10 mM Tris-HCl, 13 mM EDTA, pH 7.4) successively. The pellet was suspended in 6 mL of ice-cooled water using a mixer, and 68 μl of H2SO4 was added to the suspension to give a concentration of 0.4 N. After incubation at 4° C. for 1 hour, the suspension was centrifuged for 5 minutes at 15,000 rpm, and the supernatant was taken and mixed with 60 mL of acetone. After overnight incubation at −20° C., the coagulated material was collected by microcentrifugation, air-dried, and stored at −80° C.
Assay for Histone Deacetylase Activity
For the standard assay, 10 μl of [^3H] acetyl-labeled histones were added to 90 μl of the enzyme fraction, and the mixture was incubated at 25° C. for 30 minutes. The reaction was stopped by addition of 10 μl of HCl. The released [^3H] acetic acid was extracted with 1 mL of ethyl acetate, and 0.9 mL of the solvent layer was taken into 10 mL of toluene scintillation solution for determination of radioactivity.

The subject of series [3] is splenic cells of Lewis rats (T lymphocyte blastogenesis). Kind of series: Test 2: T-cell growth inhibitor activity (T lymphocyte blastogenesis, Concanavalin A, AlamarBlue). Type of series: cell-based. Particulars: Lewis rat splenic cells, Concanavalin A 1 μg/mL, 72 hours, read-out: Test 2: T-cell growth inhibitory activity IC50. The protocol:
Test 2: Determination of T-Cell Growth Inhibitor Activity
The T lymphocyte blastogenesis test was performed in microtiter plates with each well containing 1.5×10^5 splenic cells of Lewis rats in 0.1 mL RPMI-1640 medium supplemented with 10% fetal bovine serum (FBS), […] 2-mercaptoethanol, penicilln (100 units/mL) and streptomycin (100 μg/mL), to which Concanavalin A (1 μg/mL) was added. The cells were incubated at 37° C. in a humidified atmosphere of 5% CO2 for 72 hours. After the culture period, suppressive activities of the test compounds in T lymphocyte blastogenesis were quantified by AlamarBlue (trademark) Assay. The test samples were dissolved in DMSO and further diluted with RPMI-1640 medium and added to the culture. The activities of the test compounds were expressed as IC50.

Counter-ions that a name gives are not always drawn.

What is called IC50 is the concentration that inhibits the measured activity by half.

Take `Cl.Cl.O=C(/C=C/c1cnc(N[C@@H]2CCN(CCc3cccc(F)c3)C2)cn1)NO` [Example 1, (2E)-3-[5-({(3R)-1-[2-(3-fluorophenyl)ethyl]-3-pyrrolidinyl}amino)-2-pyrazinyl]-N-hydroxyacrylamide dihydrochloride]: in series [1], the “decrease rate (%) platelet” value was 18.3% and the “decrease rate (%) white blood corpuscle” value amounted to 43.7%. Besides, the concentration for half-maximal inhibition (IC50) in series [2] is 2.3 nM. Moreover, the IC50 in series [3] came out at 2.4 nM.
Taken in the same sequence, the figures for `COc1ccc(CCN2CC[C@@H](Nc3cnc(/C=C/C(=O)NO)cn3)C2)cc1.Cl.Cl` [Example 18, (2E)-N-hydroxy-3-[5-({(3R)-1-[2-(4-methoxyphenyl)ethyl]-3-pyrrolidinyl}amino)-2-pyrazinyl]acrylamide dihydrochloride] were 3.4%, 31.7%, 2.2 nM and 2.2 nM.
`Cl.Cl.O=C(/C=C/c1cnc(N[C@@H]2CCCN(CCc3cccc(F)c3)C2)cn1)NO` [Example 6, (2E)-3-[5-({(3R)-1-[2-(3-fluorophenyl)ethyl]-3-piperidinyl}amino)-2-pyrazinyl]-N-hydroxyacrylamide dihydrochloride]: in series [1], the “decrease rate (%) platelet” value was determined as 24.3% and the “decrease rate (%) white blood corpuscle” value came to 72.2%. The half-inhibitory concentration (IC50) in series [2] was 1.7 nM. Also, in series [3], the IC50 stood at 0.65 nM.
For `Cl.Cl.O=C(/C=C/c1cnc(N[C@@H]2CCN(CCc3ccc(F)c(F)c3)C2)cn1)NO` [Example 5, (2E)-3-[5-({(3R)-1-[2-(3,4-difluorophenyl)ethyl]-3-pyrrolidinyl}amino)-2-pyrazinyl]-N-hydroxyacrylamide dihydrochloride], in series [1], the “decrease rate (%) platelet” value worked out at 9.4% and the “decrease rate (%) white blood corpuscle” value was 40.3%. Moreover, in series [2], the IC50 came to 3.3 nM. Moreover, in series [3], the IC50 stood at 0.93 nM.
Turning to `Cl.Cl.O=C(/C=C/c1cnc(N[C@@H]2CCCN(CCC3CCCCC3)C2)cn1)NO` [Example 25, (2E)-3-(5-{[(3R)-1-(2-cyclohexylethyl)-3-piperidinyl]amino}-2-pyrazinyl)-N-hydroxyacrylamide dihydrochloride], in series [1], the “decrease rate (%) platelet” value is given as 6.2% and the “decrease rate (%) white blood corpuscle” value is recorded as 63.1%. Also, in series [2], the 50% inhibitory concentration (IC50) is 1.8 nM. For the same compound, the 50% inhibitory concentration (IC50) in series [3] is 2.2 nM.
`Cl.Cl.O=C(/C=C/c1cnc(N[C@@H]2CCN(CCc3ccc(Br)cc3)C2)cn1)NO` [Example 19, (2E)-3-[5-({(3R)-1-[2-(4-bromophenyl)ethyl]-3-pyrrolidinyl}amino)-2-pyrazinyl]-N-hydroxyacrylamide dihydrochloride]: in series [1], the “decrease rate (%) platelet” value stood at 14.2% and the “decrease rate (%) white blood corpuscle” value was 38.1%. Further, the IC50 in series [2] worked out at 1.6 nM. For the same compound, in series [3], the IC50 was 1.3 nM.
As to `Cl.Cl.O=C(/C=C/c1cnc(N[C@@H]2CCN(CCc3ccc(Cl)cc3)C2)cn1)NO` [Example 23, (2E)-3-[5-({(3R)-1-[2-(4-chlorophenyl)ethyl]-3-pyrrolidinyl}amino)-2-pyrazinyl]-N-hydroxyacrylamide dihydrochloride], in series [1], the “decrease rate (%) platelet” value stood at 18.6%. The “decrease rate (%) white blood corpuscle” value in series [1] is on record as 64.6%. For the same compound, the values for the IC50 in series [2] and in series [3] were 2 nM and 1.7 nM, respectively.
For `O=C(/C=C/c1cnc(N[C@@H]2CCCN(CCCc3ccccc3)C2)cn1)NO` [Example 17, (2E)-N-hydroxy-3-[5-[{(3R)-1-(3-phenylpropyl)-3-piperidinyl}amino]-2-pyrazinyl]acrylamide dihydrochloride], the results for the IC50 in series [2] and in series [3] were 3.3 nM and 5 nM, respectively.
